Legend:
MAC (C5b-9) = assay: MAC deposition in heart tissue by indirect immunofluorescence; type: in vivo, rabbit; settings: rabbits, 50 mg/kg i.v. 4 days, 30 min ischemia, 3 h reperfusion; p<0.05
Method: The immunofluorescent method for detection of CRP was performed essentially as described previously (Lauver et al., 2005). Briefly, tissue samples used for infarct size determination were fixed in 10% buffered formalin immediately after the completion of the experimental protocol. The tissue samples were embedded in paraffin blocks and cut into sections of 2 μm in thickness, which were then mounted on glass slides. Two consecutive sections (mirror images) from a single heart slice were mounted on each slide. The slides were deparaffinized and subjected to antigen unmasking using a commercially available kit for this purpose (Vector Laboratories, Burlingame, Calif.). After blocking for 30 minutes, primary antibodies were incubated at room temperature in a humidity chamber for 45 minutes. One section per slide was incubated with a chicken anti-rabbit CRP antibody (5 μg/ml final concentration, Strategic BioSolutions, Newark, Del.) and the other section was incubated with a chicken anti-rabbit MAC antibody (1:2500 final dilution, developed in conjunction with Lampire Biological Laboratories, Pipersville, Pa.). […] Images were analyzed using IP Lab (Scanalytics, Inc., Fairfax, Va.) software to determine mean fluorescence intensity per heart section. […]

[1] = oral administration to black mice (Showalter et al. 2004); cited from earlier work
Sprague-Dawley rats = settings: 50 mg/kg i.v., four days; cited from earlier work
[2] = system: cardiac-specific troponin I (cTnI); assay: Measurement of cardiac-specific troponin I by ELISA; type: in vivo, rabbit; settings: rabbits, 50 mg/kg i.v. 4 days; not statistically significant
Method: Whole blood was drawn at baseline (pre-ischemia) and at the end of reperfusion for the determination of cardiac-specific troponin I (cTnI). Serum levels of the proteins were measured using a commercially available ELISA kit. Collected plasma samples were prepared from whole blood and were snap frozen in liquid nitrogen. The samples were stored at −80° C. until the day of the assay when they were thawed over ice and diluted appropriately with the sample diluent supplied with each assay kit. Determination of the target protein using a protein standard curve was performed according to standard procedure in the art.

[3] = system: New Zealand white rabbits; assay: Myocardial infarct size after 30 min LAD coronary artery occlusion and 3 h reperfusion (tetrazolium method); type: in vivo, rabbit
Method: Male New Zealand white rabbits (2.3-2.6 kg) were assigned randomly to two separate groups. Each animal received DDA aqueous formulation (50 mg/kg), or an equal volume of sterile NaCl solution, once per day intravenously. The dose of DDA was selected based on the findings of previous investigations in which it was determined that a dosing regimen over four days produced statistically significant myocardial salvage in Sprague-Dawley rats (41% mean salvage at 50 mg/kg) and mongrel canines (68% mean salvage at 50 mg/kg) after ischemia and reperfusion (Gross and Lockwood, 2004; Gross and Lockwood, In Press). The animals in each group received the respective treatments on each of four consecutive days, with the experimental protocol being initiated on fifth day.
One day after the last treatment (DDA or placebo), rabbits were anesthetized with a combination of xylazine (3.0 mg/kg) and ketamine (35 mg/kg) administered intramuscularly, followed by an intravenous injection of sodium pentobarbital (15 mg/kg). An endotracheal tube was inserted and the animals were placed on a positive pressure ventilator (Harvard Apparatus, Cambridge, Mass.). The right jugular vein was cannulated for blood sampling and the right carotid artery was instrumented with a Millar catheter micro-tip pressure transducer (Millar Instruments Inc., Houston, Tex.). The Millar catheter transducer was positioned immediately above the aortic valves to monitor aortic blood pressure. The lead II electrocardiogram was monitored throughout the protocol. A left thoracotomy and pericardiotomy were performed, followed by identification of the left anterior descending coronary artery. A silk suture (3-0; Genzyme Corporation, Fall River, Mass.) was passed under the artery and around a short length of polyethylene tubing. […] Coronary artery occlusion was maintained for 30 min after which time reperfusion was initiated by withdrawing the polyethylene tubing. […]

CC1=C(/C=C/C(C)=C/C=C/C(C)=C/C=C/C=C(C)/C=C/C=C(C)/C=C/C2=C(C)C(=O)C(OC(=O)CCC(=O)O)CC2(C)C)C(C)(C)CC(OC(=O)CCC(=O)O)C1=O (stereo not shown) [DDA, disodium disuccinate astaxanthin]
MAC deposition in infarct region (fluorescence intensity) versus saline (MAC (C5b-9)): significantly reduced fluorescence
plasma clearance of free astaxanthin and tissue/serum ratios [1]: Rapid plasma clearance of free astaxanthin, and excellent myocardium- and hepatic/serum ratios
mean myocardial salvage (Sprague-Dawley rats): 41%
mean serum cTnI concentration at the end of reperfusion versus vehicle controls [2]: lower mean cTnI concentration
mean myocardial salvage ([3]; 50 mg/kg daily i.v. for four days, versus placebo): 51%
mean infarct size expressed as a percentage of the area at risk ([3]; 50 mg/kg/day i.v. for 4 days, 30 min occlusion, 3 h reperfusion, mean ± S.E.M.): 25.8±4.2%
heart rate, blood pressure, blood gases versus saline group ([3]; baseline and throughout protocol on day 5): No differences

— patent US9180111B2, “Reduction in complement activation and inflammation during tissue injury by carotenoids, carotenoid analogs, or derivatives thereof” (Cardax Pharma, Inc., priority 2005, dated 2015)
